In article PMC8480273, “Design, synthesis, and biological evaluation of symmetrical azine derivatives as novel tyrosinase inhibitors” (BMC Chemistry, 2021):
Like-named read-outs stand apart in the source and are kept apart here.

Assays:
mushroom tyrosinase = target: T1, mushroom tyrosinase (Agaricus bisporus, UniProt C7FF04); test: Determination of the inhibition type (Lineweaver–Burk kinetics); format: biochemical; settings: Lineweaver–Burk plot, L-DOPA substrate
T1 construct: purchased Sigma Chemical Co. (St. Louis, MO, USA)
T1 sequence (C7FF04 1-392): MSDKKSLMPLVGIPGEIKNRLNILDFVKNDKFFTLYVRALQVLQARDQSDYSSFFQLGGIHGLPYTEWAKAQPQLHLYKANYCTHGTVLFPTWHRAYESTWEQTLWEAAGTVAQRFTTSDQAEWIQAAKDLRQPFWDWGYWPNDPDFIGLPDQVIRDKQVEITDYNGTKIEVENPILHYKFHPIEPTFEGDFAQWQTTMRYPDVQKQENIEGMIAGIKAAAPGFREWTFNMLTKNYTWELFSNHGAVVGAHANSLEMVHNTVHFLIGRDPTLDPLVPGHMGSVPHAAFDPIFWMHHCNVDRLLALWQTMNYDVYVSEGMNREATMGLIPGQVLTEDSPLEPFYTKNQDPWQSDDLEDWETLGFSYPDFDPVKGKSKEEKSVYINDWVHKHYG
Procedure: A series of experiments were performed to determine the inhibition kinetics of 3f. The inhibitor concentrations were: 0, 8, 16 μM. Substrate (L-DOPA) concentrations were (0.1, 0.25, 0.5, 0.75 and 1.5 mM) in kinetic studies. Pre-incubation and measurement time was the same as discussed in the mushroom tyrosinase inhibition assay protocol. Maximum initial velocity was determined from the initial linear portion of absorbance up to 10 min after addition of L-DOPA with 1 min interval. The Michaelis constant (Km) and the maximal velocity (Vmax) of the tyrosinase activity were determined by the Lineweaver–Burk plot at various concentrations of L-DOPA as a substrate. The inhibition type of the enzyme was assayed by Lineweaver–Burk plots of the inverse of velocities (1/V) versus the inverse of substrate concentrations 1/[S] mM^−1.

[1] = MTT assay for cell viability, B16F10; format: cell-based; settings: mouse, B16F10 melanoma cells, B16F10, 10 µM, ± SD
Procedure: (§1) The cytotoxic activity of compound was evaluated in B16F10 cells using 3-(4,5-dimethylthiazol-2-yl)-2,5-diphenyltetrazolium bromide (MTT) assay. Cells were seeded in a 96-well plate (5 × 10^3 cells/well) and incubated at 37 °C with samples at different concentrations for 48 h. Following the treatment, cells were incubated with MTT (0.5 mg mL^−1) at 37 °C for 3 h. The MTT-containing medium was then removed, and 100 μL of DMSO was added to each well, mixed thoroughly with a 10 min shake to dissolve formazan crystals. The absorbance of each well was measured at 540 nm.

[2] = MTT assay for cell viability, A375; format: cell-based; settings: human, A375 melanoma cells, A375, 10 µM, ± SD
Procedure: The A375 cell line is derived from a human skin melanoma carrying two mutant genes, B-RAF and CDKN2 which are associated with melanoma of sun-damaged skin [48]. To determine the cytotoxicity of 3f in A375 melanoma cell lines, MTT studies were conducted.
as §1

B16F10 melanoma cells = test: Melanin content assay; format: cell-based; settings: B16F10, 10 µM, in comparison with the control
Procedure: B16F10 cells were seeded in six-well plates (1.0 × 10^5 cells/well). After 24 h, the medium was substituted by a fresh one and treated with 3f, and incubated for 48 h. Then, cells were treated with 100 nM α -MSH. […] After incubation cells were washed twice with PBS and harvested using […] trypsin, then dissolved in 300 μL of 1 N NaOH/10% DMSO buffer and boiled for 2 h at 80 °C to solubilize the melanin. The absorbance of the supernatant was measured at 470 nm in a microplate reader. The obtained results were normalized using total protein content.

tyrosinase = settings: cited from earlier work

Oc1ccc(C=NN=Cc2ccc(O)cc2O)c(O)c1 [Compound 3f, 4,4′-(Hydrazine-1,2-diylidenebis(methaneylylidene))bis(benzene-1,3-diol)]
Vmax and Km values in the presence of increasing concentrations of compound (mushroom tyrosinase): decreased
type of inhibition (mushroom tyrosinase; inhibitor 0, 8, 16 μM): uncompetitive
viability at 48 h, 10 µM [1]: 60.1 ± 9.82%
viability at 48 h, 10 µM [2]: > 82%
Melanin content (%) (B16F10 melanoma cells): 79.58%

CCOc1cc(/C=N/NC(=O)c2ccc(O)cc2)ccc1O [D]
IC50 (tyrosinase; hydrazine-containing compound): 9.9 µM

O=C1c2c(O)cc(O)cc2O[C@H](c2ccc(O)cc2O)[C@H]1O [Dihydromorin]
IC50 (tyrosinase; Fig. 1, flavanol): 10.3 µM

CCOc1cc(/C=N/NC(=O)c2ccc(O)c(OC)c2)ccc1O [E]
IC50 (tyrosinase; hydrazine-containing compound): 1.58 µM

NC(=S)N/N=C/c1ccc([N+](=O)[O-])cc1 [F]
IC50 (tyrosinase; hydrazine-containing compound): 0.05 µM

O=c1cc(-c2ccc(O)c(O)c2)oc2cc(O)cc(O)c12 [Luteolin]
IC50 (tyrosinase; Fig. 1, flavone): 60 µM

O=c1c(O)c(-c2ccc(O)c(O)c2)oc2cc(O)cc(O)c12 [Quercetin]
Ki (tyrosinase; Fig. 1, flavonol): 29 µM

Oc1ccc(/C=C/c2cc(O)cc(O)c2)cc1 [Resveratrol, 3,5,4′-trihydroxy-trans-stilbene]
IC50 (tyrosinase; Fig. 1, stilbenoid): 1 to 9 µM
IC50 (tyrosinase; resveratrol): 26.6 µM

O=C1CC(c2ccc(O)cc2O)Oc2cc(O)cc(O)c21 (stereo not drawn) [Streppogenin]
IC50 (tyrosinase; Fig. 1, flavanone): 1.3 µM

Oc1ccc(/C=N/c2ccccc2O)c(O)c1 [compound B]
IC50 (tyrosinase; most potent bibenzyl compound of Oozeki et al.): 0.37 µM

Chalcone
IC50 (tyrosinase; Fig. 1, chalcone): 8.1 µM

Phthalimide
IC50 (tyrosinase; Fig. 1, phthalimide): 26.2 µM

Quinazoline
IC50 (tyrosinase; Fig. 1, quinazoline): 0.46 µM
